Measurements published in patent publication US10159717B2, “Methods of treating cancer of the central nervous system” (Yeda Research and Development Co. Ltd., priority 2008, dated 2018).

Experiments:
[1] = Stability of oxaloacetate solutions; type: physicochemical; settings: cell culture medium
Procedure: To test the effect of oxaloacetate (OA) on glioma cells in vitro, C6 glioma cells were incubated with 1 mM oxaloacetate. Since oxaloacetate solutions are unstable, the cell culture medium was changed every day to allow the cells to be daily exposed to a fresh oxaloacetate solution.

C6 glioma = C6 glioma implanted in rat striatum, tumor growth followed by MRI; type: in vivo; settings: 0.2M oxaloacetate in drinking water from day 7, MRI 10 days later, in average
Procedure: Male SPD&OLD rats weighing 260-280 g were used and placed in individual cages. All experiments were conducted according to the guidelines of the institutional animal care and use committee of the Weizmann Institute of Science, Rehovot, Israel.
Rat C6 glioma cells were grown in DMEM medium supplemented with 10% FCS. 10^7 cells were plated on 100×20 mm dishes and grown to 80% confluence for two days, passaged at a dilution of 1:10 after 1-2 min exposure to 0.25% trypsin and plated on 7 plates 60×15 mm. The cells were grown to 80% confluence for two additional days. The cells were then trypsynized as above, washed once with sterile PBS and centrifuged for 15 min at 1200 rpm. Prior to centrifugation, the cells were counted in a hemocytometer. Following centrifugation, the medium was removed and the cells were diluted in sterile PBS to a final concentration […] was injected immediately intracranially. For that purpose, the rats were anesthetized with 1.5% Halothane and placed in a stereotactic apparatus. […]
Experiments on live animals were conducted on a Bio spec Avance™ system (Bruker Biospin, Ettlingen, Germany) with a 4.7 T 30-cm horizontal bore magnet. […] The volume of the tumor was assessed using the Surdriver program.
After establishing that oxaloacetate has no effect on glioma growth when grown under in vitro conditions, the effect of same in vivo was determined. […]

O=C(O)CC(=O)C(=O)O [oxaloacetate]
stability of solutions [1]: unstable
Tumor spread, less than that of untreated animals that received drinking water only (C6 glioma): at least 10 folds
